Source: patent US10526323B2, “Indazole and azaindazole substituted compounds as mGluR4 allosteric potentiators, compositions, and methods of treating neurological dysfunction” (Vanderbilt University, priority 2015, dated 2020)

Target: mGluR4 (UniProt Q14833)
Experiment: mGluR4 potentiation assay: increase in response to an EC20 concentration of agonist (species not given)
Assay type: cell-based
Conditions: EC50 for potentiation of mGluR4; table does not state human or rat
In short: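 Human mGluR4 was expressed in CHO cells read with a Ca2+-sensitive dye; rat mGluR4 was co-expressed with GIRK in […] read by thallium flux. Potentiation is the rise over agonist-alone response, with EC50 and maximal potentiation from non-linear fits.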

Structure (SMILES)	EC50
COc1ccc2[nH]nc(Nc3ccc4c(C5CC5)nn(C)c4c3)c2c1 [Example 47, N-(3-cyclopropyl-1-methyl-1H-indazol-6-yl)-5-methoxy-1H-indazol-3-amine]	> 10000 nM
Cn1nc(C2CC2)c2ccc(Nc3n[nH]c4nccnc34)cc21 [Example 4, N-(3-cyclopropyl-1-methyl-1H-indazol-6-yl)-1H-pyrazolo[3,4-b]pyrazin-3-amine]	20 nM
Cc1nn(C(C)C)c2ccc(Nc3n[nH]c4cccnc34)cc12 [Example 61, N-(1-isopropyl-3-methyl-1H-indazol-5-yl)-1H-pyrazolo[4,3-b]pyridin-3-amine]	133 nM
Cn1ncc2c(Cl)cc(Nc3n[nH]c4nccnc34)cc21 [Example 8, N-(4-chloro-1-methyl-1H-indazol-6-yl)-1H-pyrazolo[3,4-b]pyrazin-3-amine]	16 nM
Clc1nn(CC2CC2)c2ccc(Nc3n[nH]c4cccnc34)cc12 [Example 284, N-(3-chloro-1-(cyclopropylmethyl)-1H-indazol-5-yl)-1H-pyrazolo[4,3-b]pyridin-3-amine]	> 10000 nM
Cc1nn(CC2CCC2)c2ccc(Nc3n[nH]c4cccnc34)cc12 [Example 72, N-(1-(cyclobutylmethyl)-3-methyl-1H-indazol-5-yl)-1H-pyrazolo[4,3-b]pyridin-3-amine]	47 nM
COCCn1nc(C)c2cc(Nc3n[nH]c4cccnc34)ccc21 [Example 133, N-(1-(2-methoxyethyl)-3-methyl-1H-indazol-5-yl)-1H-pyrazolo[4,3-b]pyridin-3-amine]	379 nM
c1cnc2c(Nc3ccc4nn(CC5CCC5)cc4c3)n[nH]c2n1 [Example 87, N-(2-(cyclobutylmethyl)-2H-indazol-5-yl)-1H-pyrazolo[3,4-b]pyrazin-3-amine]	749 nM
COCCn1nc(C)c2cc(Nc3n[nH]c4cccnc34)cnc21 [Example 261, 1-(2-methoxyethyl)-3-methyl-N-(1H-pyrazolo[4,3-b]pyridin-3-yl)pyrazolo[3,4-b]pyridin-5-amine]	2330 nM
Cc1nn(C)c2ccc(Nc3n[nH]c4cccnc34)cc12 [Example 108, N-(1,3-dimethyl-1H-indazol-5-yl)-1H-pyrazolo[4,3-b]pyridin-3-amine]	345 nM
Cc1nn(CCC(C)Cl)c2ccc(Nc3n[nH]c4cccnc34)cc12 (stereo not shown) [Example 134, N-(1-(3-chlorobutyl)-3-methyl-1H-indazol-5-yl)-1H-pyrazolo[4,3-b]pyridin-3-amine]	77 nM
Cc1cc(Cn2nc3ccc(Nc4n[nH]c5cccnc45)cc3c2C)no1 [Example 70, N-(3-methyl-2-((5-methylisoxazol-3-yl)methyl)-2H-indazol-5-yl)-1H-pyrazolo[4,3-b]pyridin-3-amine]	870 nM
Cn1nc(N2CCOCC2)c2ccc(Nc3n[nH]c4cccnc34)cc21 [Example 35, N-(1-methyl-3-morpholino-1H-indazol-6-yl)-1H-pyrazolo[4,3-b]pyridin-3-amine]	992 nM
C=C(C)Cn1nc(C)c2cc(Nc3n[nH]c4cccnc34)ccc21 [Example 122, N-(3-methyl-1-(2-methylallyl)-1H-indazol-5-yl)-1H-pyrazolo[4,3-b]pyridin-3-amine]	49 nM
Cc1nn(C(C)C)c2ncc(Nc3n[nH]c4ccccc34)cc12 [Example 269, N-(1H-indazol-3-yl)-1-isopropyl-3-methyl-1H-pyrazolo[3,4-b]pyridin-5-amine]	2550 nM
CC(=O)c1nn(C)c2cc(Nc3n[nH]c4cccnc34)ccc12 [Example 21, 1-(6-((1H-pyrazolo[4,3-b]pyridin-3-yl)amino)-1-methyl-1H-indazol-3-yl)ethan-1-one]	764 nM

Structure (SMILES)	EC50
COc1ccc(-c2nn(C)c3cc(Nc4n[nH]c5cccnc45)ccc23)cn1 [Example 180, N-[3-(6-methoxy-3-pyridyl)-1-methyl-indazol-6-yl]-1H-pyrazolo[4,3-b]pyridin-3-amine]	> 10000 nM
Cc1nn(C)c2ncc(Nc3n[nH]c4cccnc34)cc12 [Example 268, N-(1,3-dimethyl-1H-pyrazolo[3,4-b]pyridin-5-yl)-1H-pyrazolo[4,3-b]pyridin-3-amine]	> 30000 nM
Cn1ncc2c(Cl)cc(Nc3n[nH]c4ncccc34)cc21 [Example 6, N-(4-chloro-1-methyl-1H-indazol-6-yl)-1H-pyrazolo[3,4-b]pyridin-3-amine]	51 nM
Cc1nn(C2CCCCC2)c2ncc(Nc3n[nH]c4cccnc34)cc12 [Example 260, 1-cyclohexyl-3-methyl-N-(1H-pyrazolo[4,3-b]pyridin-3-yl)pyrazolo[3,4-b]pyridin-5-amine]	440 nM
Cn1ncc2c(Cl)cc(Nc3n[nH]c4cccnc34)cc21 [Example 2, N-(4-chloro-1-methyl-1H-indazol-6-yl)-1H-pyrazolo[4,3-b]pyridin-3-amine]	29 nM
Cc1cc(Cn2cc3ncc(Nc4n[nH]c5nccnc45)cc3n2)no1 [Example 145, N-(2-((5-methylisoxazol-3-yl)methyl)-2H-pyrazolo[4,3-b]pyridin-6-yl)-1H-pyrazolo[3,4-b]pyrazin-3-amine]	> 10000 nM
Cn1nc(N2CC(C)(C3CC3)CC2=O)c2ccc(Nc3n[nH]c4ccccc34)cc21 (stereo not shown) [Example 41, 1-(6-((1H-indazol-3-yl)amino)-1-methyl-1H-indazol-3-yl)-4-cyclopropyl-4-methylpyrrolidin-2-one]	1420 nM
Cn1ncc2cc(Nc3n[nH]c4cccnc34)cc(Cl)c21 [Example 63, N-(7-chloro-1-methyl-1H-indazol-5-yl)-1H-pyrazolo[4,3-b]pyridin-3-amine]	85 nM
CCCCn1nc(Cl)c2cc(Nc3n[nH]c4cccnc34)ccc21 [Example 281, N-(1-butyl-3-chloro-1H-indazol-5-yl)-1H-pyrazolo[4,3-b]pyridin-3-amine]	2430 nM
CCC(F)(F)Cn1nc(C)c2cc(Nc3n[nH]c4ncccc34)ccc21 [Example 137, N-(1-(2,2-difluorobutyl)-3-methyl-1H-indazol-5-yl)-1H-pyrazolo[3,4-b]pyridin-3-amine]	436 nM
CC(C)Cn1nc(Cl)c2cc(Nc3n[nH]c4cccnc34)ccc21 [Example 274, N-(3-chloro-1-isobutyl-1H-indazol-5-yl)-1H-pyrazolo[4,3-b]pyridin-3-amine]	3020 nM
Cn1nc(C(=O)N2CCC(F)(F)CC2)c2ccc(Nc3n[nH]c4cccnc34)cc21 [Example 162, (4,4-difluoro-1-piperidyl)-[1-methyl-6-(1H-pyrazolo[4,3-b]pyridin-3-ylamino)indazol-3-yl]methanone]	498 nM
Cc1nn(C(=O)C(F)(F)F)c2ccc(Nc3n[nH]c4nccnc34)cc12 [Example 138, 1-(5-((1H-pyrazolo[3,4-b]pyrazin-3-yl)amino)-3-methyl-1H-indazol-1-yl)-2,2,2-trifluoroethan-1-one]	3400 nM
Cc1cc(Cn2cc3ncc(Nc4n[nH]c5cccnc45)cc3n2)no1 [Example 144, N-(2-((5-methylisoxazol-3-yl)methyl)-2H-pyrazolo[4,3-b]pyridin-6-yl)-1H-pyrazolo[4,3-b]pyridin-3-amine]	> 10000 nM
Cn1nc(S(C)(=O)=O)c2ccc(Nc3n[nH]c4cccnc34)cc21 [Example 186, N-(1-methyl-3-(methylsulfonyl)-1H-indazol-6-yl)-1H-pyrazolo[4,3-b]pyridin-3-amine]	1880 nM
